# Source: the NIST ThermoML archive (doi:10.1016/j.jct.2006.03.004)
# Numbers after ± are expanded uncertainties.
# Conditions: Liquid
compound,measurement,setting,value
"FCC(F)(F)F [1,1,1,2-tetrafluoroethane]",vapor or sublimation pressure,282.55 K,404 ± 2.7 kPa
same,vapor or sublimation pressure,293.32 K,572.6 ± 3.7 kPa
same,vapor or sublimation pressure,303.24 K,773.3 ± 5 kPa
same,vapor or sublimation pressure,312.66 K,1002.2 ± 6.5 kPa
same,vapor or sublimation pressure,322.82 K,1304.9 ± 8.3 kPa
